According to ChEMBL document CHEMBL1201862, “PubChem BioAssay data set” (2004):
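Cultured in 96-well plates, cells were exposed to test compound for 48 hours across five concentrations. The concentration for 50% growth inhibition is given as GI50.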 The source made the active and inactive calls. Cut-off read from the data, not from the text of the source: active = GI50 up to about 1.1 µM and inactive = higher.

Experiments:
Assay in all cases: growth of human tumour cells (NCI), 48 h
[1] = test system: DLD-1
[2] = test system: M19-MEL
[3] = test system: XF498
[4] = test system: HOP-18
[5] = test system: DMS-114
[6] = test system: KM-20L2
[7] = test system: RXF 631
[8] = test system: SNB-78
[9] = test system: DMS-273

COc1cc2cnc3c4cc(OC(C)C)c(OC)cc4ccc3c2cc1OC
GI50 [1]: > 100 µM (inactive)
GI50 [2]: > 100 µM (inactive)
GI50 [3]: > 100 µM (inactive)
GI50 [4]: > 100 µM (inactive)
GI50 [5]: > 100 µM (inactive)
GI50 [6]: > 100 µM (inactive)

Cc1nc(Nc2ccc([N+](=O)[O-])cc2)sc1C(/C=C/c1ccc(N(C)C)cc1)=N/NC(=O)c1ccccc1
GI50 [7]: 32.6 µM (inactive)
GI50 [1]: 55 µM (inactive)
GI50 [8]: 41.6 µM (inactive)
GI50 [2]: 61.1 µM (inactive)
GI50 [3]: > 100 µM (inactive)
GI50 [4]: 72.8 µM (inactive)
GI50 [5]: 29 µM (inactive)
GI50 [6]: 36.3 µM (inactive)

Nc1nc(Cl)cc(NCCCCCCCCNc2cc(Cl)nc(N)n2)n1
GI50 [1]: 10.2 µM (inactive)
GI50 [8]: 71.6 µM (inactive)
GI50 [2]: 16 µM (inactive)
GI50 [3]: 1.64 µM (inactive)
GI50 [9]: 8.79 µM (inactive)
GI50 [4]: 27.1 µM (inactive)
GI50 [6]: 9.48 µM (inactive)

COc1cc(C=O)c(-c2cc3c(cc2C=O)OCO3)c(OC)c1OC
GI50 [7]: 115 µM (inactive)
GI50 [1]: 88.7 µM (inactive)
GI50 [2]: 89.1 µM (inactive)
GI50 [9]: 85.5 µM (inactive)
GI50 [4]: > 290 µM (inactive)
GI50 [5]: 84.5 µM (inactive)
GI50 [6]: 69.5 µM (inactive)

CCCCCCCCOCC(O)COC (configuration not stated)
GI50 [1]: > 100 µM (inactive)
GI50 [2]: > 100 µM (inactive)
GI50 [9]: > 100 µM (inactive)
GI50 [4]: > 100 µM (inactive)
GI50 [5]: > 100 µM (inactive)

Cc1c(Cl)cccc1N1C(=O)C(Cl)=C(Cl)C1=O
GI50 [1]: > 66.8 µM (inactive)
GI50 [8]: > 100 µM (inactive)
GI50 [2]: > 100 µM (inactive)
GI50 [3]: 66.7 µM (inactive)
GI50 [9]: > 100 µM (inactive)
GI50 [4]: > 100 µM (inactive)
GI50 [5]: > 100 µM (inactive)
GI50 [6]: > 100 µM (inactive)

COc1cc(C)c(CC/C(C)=C/Cc2cc(O)ccc2O)c(C)c1C [PANICEIN A HYDROQUINONE]
GI50 [1]: > 25 µM (inactive)
GI50 [2]: > 25 µM (inactive)
GI50 [3]: > 25 µM (inactive)
GI50 [9]: > 25 µM (inactive)
GI50 [4]: > 25 µM (inactive)
GI50 [5]: > 25 µM (inactive)
GI50 [6]: > 25 µM (inactive)

CCC12CC[C@H](C#N)N3CCc4c(n(c5ccccc45)C(=O)C1)C32 (some centres not stated)
GI50 [7]: 16.4 µM (inactive)
GI50 [1]: 18.3 µM (inactive)
GI50 [8]: 19.5 µM (inactive)
GI50 [2]: 18.7 µM (inactive)
GI50 [3]: 20 µM (inactive)
GI50 [9]: 5.14 µM (inactive)
GI50 [4]: < 0.01 µM (active)
GI50 [6]: 16.3 µM (inactive)

CCOC(=O)c1cn(Cc2ccccc2)c(=O)n1Cc1ccccc1
GI50 [7]: > 100 µM (inactive)
GI50 [1]: > 100 µM (inactive)
GI50 [8]: > 100 µM (inactive)
GI50 [2]: > 100 µM (inactive)
GI50 [3]: 25.8 µM (inactive)
GI50 [9]: > 100 µM (inactive)
GI50 [4]: > 100 µM (inactive)
GI50 [5]: 94 µM (inactive)
GI50 [6]: > 100 µM (inactive)

O=C(/C(=C/c1ccc(Cl)cc1)c1ccccc1)c1ccccc1
GI50 [1]: 15.2 µM (inactive)
GI50 [8]: 19.9 µM (inactive)
GI50 [3]: 18.5 µM (inactive)
GI50 [4]: 26.5 µM (inactive)
GI50 [5]: 16.7 µM (inactive)

C[C@@H]1C[C@@H]([C@H](O)CC2CC(=O)NC(=O)C2)C(=O)[C@@H](C)C1 [CYCLOHEXIMIDE]
GI50 [7]: 0.0248 µM (active)
GI50 [1]: 0.0405 µM (active)
GI50 [8]: 0.0875 µM (active)
GI50 [2]: 0.0607 µM (active)
GI50 [3]: 0.0348 µM (active)
GI50 [9]: 0.0557 µM (active)
GI50 [4]: 0.249 µM (active)
GI50 [5]: 0.102 µM (active)
GI50 [6]: 0.0705 µM (active)

C/C(CN1C(=O)c2ccccc2C1=O)=N\NS(=O)(=O)c1cccc([N+](=O)[O-])c1
GI50 [7]: > 100 µM (inactive)
GI50 [1]: > 100 µM (inactive)
GI50 [8]: > 100 µM (inactive)
GI50 [2]: > 100 µM (inactive)
GI50 [3]: > 100 µM (inactive)
GI50 [9]: > 100 µM (inactive)
GI50 [4]: > 100 µM (inactive)
GI50 [6]: > 100 µM (inactive)

CCNC(=O)COc1ccc(Cl)c(C)c1
GI50 [1]: > 100 µM (inactive)
GI50 [8]: > 100 µM (inactive)
GI50 [2]: > 100 µM (inactive)
GI50 [9]: > 100 µM (inactive)
GI50 [4]: > 100 µM (inactive)
GI50 [5]: > 100 µM (inactive)
GI50 [6]: > 100 µM (inactive)

O=C1OC(=O)C23CSCC12C1C=CC3O1 (configuration not stated)
GI50 [1]: > 100 µM (inactive)
GI50 [2]: > 100 µM (inactive)
GI50 [3]: > 100 µM (inactive)
GI50 [9]: > 100 µM (inactive)
GI50 [5]: > 100 µM (inactive)
GI50 [6]: > 100 µM (inactive)

CCC1(C(=O)OC)CCc2c(OC)ccc(OC)c2C1=O (configuration not stated)
GI50 [7]: > 100 µM (inactive)
GI50 [1]: > 100 µM (inactive)
GI50 [8]: > 100 µM (inactive)
GI50 [2]: > 100 µM (inactive)
GI50 [3]: > 100 µM (inactive)
GI50 [9]: > 100 µM (inactive)
GI50 [4]: > 100 µM (inactive)
GI50 [5]: > 100 µM (inactive)
GI50 [6]: > 100 µM (inactive)

Cn1ncc2ccc3[nH]c4ccccc4c(=O)c3c21
GI50 [7]: 21.8 µM (inactive)
GI50 [1]: 27.5 µM (inactive)
GI50 [8]: 27.7 µM (inactive)
GI50 [2]: 23.2 µM (inactive)
GI50 [9]: 28.6 µM (inactive)
GI50 [4]: 58.5 µM (inactive)
GI50 [5]: 35.8 µM (inactive)
GI50 [6]: 33.8 µM (inactive)

CC(CCCOC(c1ccccc1)(c1ccccc1)c1ccccc1)OC(=O)Nc1ccccc1 (configuration not stated)
GI50 [1]: 13.7 µM (inactive)
GI50 [8]: 16.4 µM (inactive)
GI50 [2]: 14.6 µM (inactive)
GI50 [3]: 14.9 µM (inactive)
GI50 [9]: 15.5 µM (inactive)
GI50 [5]: 12.1 µM (inactive)
GI50 [6]: 5.12 µM (inactive)

C/C(CCn1[nH]c(=O)ccc1=O)=N\NC(=O)C(N)=O
GI50 [1]: > 100 µM (inactive)
GI50 [8]: > 100 µM (inactive)
GI50 [2]: > 100 µM (inactive)
GI50 [3]: > 100 µM (inactive)
GI50 [9]: > 100 µM (inactive)
GI50 [4]: > 100 µM (inactive)
GI50 [5]: > 100 µM (inactive)
GI50 [6]: > 100 µM (inactive)

COc1ccc2c(c1)C(=O)C1CC(=O)CCC21 (configuration not stated)
GI50 [7]: > 100 µM (inactive)
GI50 [1]: > 100 µM (inactive)
GI50 [8]: > 100 µM (inactive)
GI50 [2]: > 100 µM (inactive)
GI50 [9]: > 100 µM (inactive)
GI50 [4]: > 100 µM (inactive)
GI50 [5]: > 100 µM (inactive)
GI50 [6]: > 100 µM (inactive)

COc1ccc(/C(C#N)=C(/N)SCc2ccccc2Cl)cc1
GI50 [1]: 14.1 µM (inactive)
GI50 [8]: 27 µM (inactive)
GI50 [2]: 16.6 µM (inactive)
GI50 [3]: 14.8 µM (inactive)
GI50 [4]: 19.5 µM (inactive)
GI50 [5]: 17.7 µM (inactive)
GI50 [6]: 17.8 µM (inactive)

O=C(O)C1C2CC3CC2CC31 (configuration not stated)
GI50 [7]: > 100 µM (inactive)
GI50 [8]: > 100 µM (inactive)
GI50 [3]: > 100 µM (inactive)
GI50 [9]: > 100 µM (inactive)
GI50 [5]: > 100 µM (inactive)

Nc1ccc(S(=O)(=O)Nc2cnc3ccccc3n2)cc1 [SULFAQUINOXALINE]
GI50 [7]: > 100 µM (inactive)
GI50 [1]: > 100 µM (inactive)
GI50 [8]: > 100 µM (inactive)
GI50 [2]: > 100 µM (inactive)
GI50 [3]: > 100 µM (inactive)
GI50 [9]: > 100 µM (inactive)
GI50 [4]: > 100 µM (inactive)
GI50 [5]: > 100 µM (inactive)
GI50 [6]: > 100 µM (inactive)

N#CC1CC2(C1)OCCS2 (configuration not stated)
GI50 [1]: > 100 µM (inactive)
GI50 [8]: > 100 µM (inactive)
GI50 [9]: > 100 µM (inactive)
GI50 [6]: > 100 µM (inactive)

CC1(c2cccc(N)c2)C2C(=O)NC(=O)C1C(=O)NC2=O (configuration not stated)
GI50 [7]: > 100 µM (inactive)
GI50 [1]: 34.7 µM (inactive)
GI50 [8]: 51.2 µM (inactive)
GI50 [2]: 37.2 µM (inactive)
GI50 [3]: 21.8 µM (inactive)
GI50 [9]: 25.5 µM (inactive)
GI50 [5]: 27.5 µM (inactive)
GI50 [6]: 27.6 µM (inactive)

O=C(O)c1c([N+](=O)[O-])cc(C(F)(F)F)cc1[N+](=O)[O-]
GI50 [7]: > 100 µM (inactive)
GI50 [8]: > 100 µM (inactive)
GI50 [2]: > 100 µM (inactive)
GI50 [3]: 35.2 µM (inactive)
GI50 [9]: > 100 µM (inactive)
GI50 [6]: > 100 µM (inactive)

CC(C)(O)[C@@H]1CC[C@@]2(C)CCCC(O)C2(O)C1 (some centres not stated)
GI50 [7]: > 100 µM (inactive)
GI50 [1]: > 100 µM (inactive)
GI50 [2]: > 100 µM (inactive)
GI50 [3]: > 100 µM (inactive)
GI50 [9]: > 100 µM (inactive)
GI50 [4]: > 100 µM (inactive)
GI50 [5]: > 100 µM (inactive)
GI50 [6]: > 100 µM (inactive)

CC(=O)N1[C@H](C(=O)O)CS[C@H]1c1ccc(F)cc1
GI50 [7]: > 100 µM (inactive)
GI50 [8]: > 100 µM (inactive)
GI50 [2]: > 100 µM (inactive)
GI50 [4]: > 100 µM (inactive)
GI50 [5]: > 100 µM (inactive)
